Here are results for 2 compounds from patent publication US20130261147A1, “COMPOSITION FOR PREVENTING OR TREATING DEMENTIA” (priority 2010, published 2013).

Entries after “also recorded” stand apart in the source; their conditions may differ.

The test system of one data set is cells. The data set is described as follows: MTT Cell Proliferation assay, cell death activity. Format: cell-based. The settings on record: 8 hours; for cytotoxicity (in words): up to 10 μg/ml. The procedure:
In order to investigate the cell death activity caused by the compounds, lycoricidine and lycoricidinol, MTT Cell Proliferation assay method was used (ATCC catalog #30-1010K, Manassas, USA). After cells were treated with each compound having various concentrations for 8 hours, viable cells were measured quantitatively, and the results are shown in Table 7 and FIG. 8.

The subject of data set [1] is Human Beta Amyloid [1-42] (Aβ42) production in HeLa cell line transfected with Human APP. The data set is described as follows: Inhibition of Aβ42 production, HeLa cell line transfected with Human APP, colorimetric ELISA of culture medium. Format: cell-based. The settings on record: for inhibitory effect on Aβ42 production, dependence on concentration (in words): over the concentrations tested. The source says:
(§1) To investigate in vitro inhibitory activity of Lycoris aurea extracts against beta-amyloid production, a HeLa cell line transfected with Human APP was used. This cell line was provided from Professor Tae-Wan Kim (Department of Pathology, Columbia University Medical Center, New York, N.Y. 10032, USA). For the quantity analysis of major beta-amyloids, Aβ40, and Aβ42, which are resulted from the activity of gamma-secretase secreted from cells, Human Beta Amyloid (Aβ40), and Human Beta Amyloid (Aβ42) Colorimetric ELISA Kit (#KHB3482 and #KHB3442; BioSource International, Inc., USA) were each used.
(§2) The alcohol extracts of Lycoris aurea (CN1-M, see Example 1) with certain concentrations set forth in Table 1 below were added to the cell culture medium (DMEM culture medium #11995; GIBCO) cultured with the transfected HeLa cells, which were then cultured at 37° C. for 8 hours. A transfected HeLa cell culture medium with no treatment, to which no Lycoris aurea alcohol extracts were added, was used as a negative control.
In general terms: In an ELISA, binding on a coated surface is turned into a signal by an enzyme label.

The next data set deals with sAPPβ. The data set is described as follows: Western blot of sAPPβ (product of beta-secretase activity), band density. Format: cell-based. The settings on record: 0.1 μg/ml; for effect on secretion / production change of sAPPβ (in words): Western blot; for Reduction Rate of sAPPβ (%) Against Negative Control: band density of Western blot. The procedure:
(§3) Effects of the compounds on the production of a product resulted from the activity of alpha-secretase, sAPPα and a product resulted from the activity of beta-secretase, sAPPβ, were investigated through the Western blot methods of sAPPα and sAPPβ, and the results are shown in FIG. 6. […] The band densities of sAPPα and sAPPβ were measured from the Western blot results of FIG. 6, and the results are shown Table 6 and FIG. 7.
In general terms: In western blotting, separated proteins are transferred to a membrane and probed.

Data set [2] relates to Human Beta Amyloid [1-40] (Aβ40) production in HeLa cell line transfected with Human APP. The data set is described as follows: Inhibition of Aβ40 production, HeLa cell line transfected with Human APP, colorimetric ELISA of culture medium. The data set is classed as cell-based. The settings on record: for inhibitory effect on Aβ40 production, dependence on concentration (in words): over the concentrations tested.
Excerpt: as §1, §2

The next data set deals with sAPPα. The data set is described as follows: Western blot of sAPPα (product of alpha-secretase activity), band density. Format: cell-based. The following applies: 0.1 μg/ml; for effect on secretion / production change of sAPPα (in words): Western blot; for Reduction Rate of sAPPα (%) Against Negative Control: band density of Western blot. The procedure: as §3
Another data set relates to alpha-secretase. The data set is described as follows: Alpha-secretase activity assay kit with total membrane proteins from HeLa cells. Format: biochemical. The following applies: for Activity Change Rate of Alpha-Secretase (%) against Negative Control: 100%: No Change; for change of the activity of the alpha-secretase (in words): 0.01 and 0.1 μg/ml. The source says:
In order to investigate which secretase is responsible for the inhibitory effects of the compounds on Aβ production, an activity assay kit (#CBA042; Calbiochem, USA) of the alpha-secretase was used. For the alpha-secretase, the total membrane proteins obtained from the HeLa cells (see Test Example 1) were used.

On to `O=C1NC2C(=CC(O)C(O)C2O)c2cc3c(cc21)OCO3` (centres unmarked) [Lycoricidine, lycoricidine], for which the “Cell Death Rate (%) against Negative Control” value in the data set on cells (0.01 μg/ml) turned out to be 4.9%; with cells (0.1 μg/ml) it was 11.3%; with cells (1 μg/ml) it was 19%; in the data set with cells (10 μg/ml), 21.1%. In the data set with cells, the “cytotoxicity (in words)” value is “not cytotoxic”. The inhibition at 0.01 µg/mL in data set [1] (Homo sapiens, HeLa, 0.01 μg/ml, read-out: Aβ42 Production Inhibitory Rate (%) against Negative Control) turned out to be 16%; in data set [2] (Homo sapiens, HeLa, 0.01 μg/ml, read-out: Aβ40 Production Inhibitory Rate (%) against Negative Control), 3.3%. Also, the inhibition at 0.1 µg/mL in data set [1] (Homo sapiens, HeLa, 0.1 μg/ml, read-out: Aβ42 Production Inhibitory Rate (%) against Negative Control) amounted to 81.3%; in data set [2] (Homo sapiens, HeLa, 0.1 μg/ml, read-out: Aβ40 Production Inhibitory Rate (%) against Negative Control) it was 67%. In addition, the inhibition at 1 µg/mL in data set [1] (Homo sapiens, HeLa, 1 μg/ml, read-out: Aβ42 Production Inhibitory Rate (%) against Negative Control) is 97.5%; in data set [2] (Homo sapiens, HeLa, 1 μg/ml, read-out: Aβ40 Production Inhibitory Rate (%) against Negative Control), 92.8%. In addition, the inhibition at 10 µg/mL came out at 100% in data set [1] (Homo sapiens, HeLa, 10 μg/ml, read-out: Aβ42 Production Inhibitory Rate (%) against Negative Control) and 97.2% in data set [2] (Homo sapiens, HeLa, 10 μg/ml, read-out: Aβ40 Production Inhibitory Rate (%) against Negative Control). Moreover, the “inhibitory effect on Aβ42 production, dependence on concentration (in words)” value in data set [1] is “concentration-dependent”. Besides, the “effect on secretion / production change of sAPPβ (in words)” value in the data set on sAPPβ is “did not affect the secretion; also recorded: not significant”. Moreover, the “Reduction Rate of sAPPβ (%) Against Negative Control” value in the data set with sAPPβ turned out to be 17%. Moreover, the “inhibitory effect on Aβ40 production, dependence on concentration (in words)” value in data set [2] was “concentration-dependent”. For the same compound, the “effect on secretion / production change of sAPPα (in words)” value in the data set with sAPPα is on record as “did not affect the secretion; also recorded: not significant”. In addition, the “Reduction Rate of sAPPα (%) Against Negative Control” value with sAPPα came to 12%. Besides, the “Activity Change Rate of Alpha-Secretase (%) against Negative Control” value with alpha-secretase (0.01 μg/ml) is 106%; with alpha-secretase (0.1 μg/ml) it was 110%. The “change of the activity of the alpha-secretase (in words)” value with alpha-secretase is “did not change the activity”.

Regarding `O=C1NC2C(=CC(O)C(O)C2O)c2cc3c(c(O)c21)OCO3` (centres unmarked) [Lycoricidinol, lycoricidinol], the “Cell Death Rate (%) against Negative Control” value is reported as 10.3% in the data set with cells (0.01 μg/ml), 11.6% in the data set on cells (0.1 μg/ml), 16.5% in the data set with cells (1 μg/ml) and 19.3% with cells (10 μg/ml). Also, the “cytotoxicity (in words)” value in the data set with cells is reported as “not cytotoxic”. Further, the “Aβ42 Production Inhibitory Rate (%) against Negative Control” value in data set [1] (0.01 μg/ml) turned out to be 44.0%; in data set [1] (0.1 μg/ml), 97.0%; in data set [1] (1 μg/ml), 100%; in data set [1] (10 μg/ml), 100%. Moreover, the “inhibitory effect on Aβ42 production, dependence on concentration (in words)” value in data set [1] is on record as “concentration-dependent”. Besides, the “effect on secretion / production change of sAPPβ (in words)” value in the data set on sAPPβ is given as “did not affect the secretion; also recorded: not significant”. For the same compound, the “Reduction Rate of sAPPβ (%) Against Negative Control” value in the data set with sAPPβ amounted to 7.5%. For the same compound, the “Aβ40 Production Inhibitory Rate (%) against Negative Control” value in data set [2] (0.01 μg/ml) stood at 25.0%; in data set [2] (0.1 μg/ml) it was 90.4%; in data set [2] (1 μg/ml), 97.8%; in data set [2] (10 μg/ml) it was 98.4%. The “inhibitory effect on Aβ40 production, dependence on concentration (in words)” value in data set [2] is reported as “concentration-dependent”. Also, the “effect on secretion / production change of sAPPα (in words)” value in the data set with sAPPα is “did not affect the secretion; also recorded: not significant”. In the data set on sAPPα, the “Reduction Rate of sAPPα (%) Against Negative Control” value came out at 1.0%. In addition, the “Activity Change Rate of Alpha-Secretase (%) against Negative Control” value turned out to be 94% with alpha-secretase (0.01 μg/ml) and 100% in the data set on alpha-secretase (0.1 μg/ml). In addition, the “change of the activity of the alpha-secretase (in words)” value with alpha-secretase is “did not change the activity”.
